{"source": "patent US20250195483A1", "about": "“SPIRO PIPERIDINE DERIVATIVES AS INHIBITORS OF APOL1 AND METHODS OF USING SAME” (Vertex Pharmaceuticals Incorporated, priority 2022, published 2025)", "target": "T1, APOL1 (Homo sapiens, UniProt O14791)", "T1 sequence (O14791 1-398)": "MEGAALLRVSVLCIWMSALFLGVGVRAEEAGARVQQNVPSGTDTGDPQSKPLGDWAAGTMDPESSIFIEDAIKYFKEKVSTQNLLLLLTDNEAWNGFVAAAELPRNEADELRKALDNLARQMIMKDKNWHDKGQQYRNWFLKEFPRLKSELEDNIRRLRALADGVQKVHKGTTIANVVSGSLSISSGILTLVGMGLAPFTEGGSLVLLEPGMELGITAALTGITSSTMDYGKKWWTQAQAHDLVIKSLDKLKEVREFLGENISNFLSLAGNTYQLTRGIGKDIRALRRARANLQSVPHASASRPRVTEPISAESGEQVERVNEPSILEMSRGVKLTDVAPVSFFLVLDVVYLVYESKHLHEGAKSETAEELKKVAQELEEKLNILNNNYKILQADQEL", "test": "MultiTox-Fluor Multiplex Cytotoxicity Assay, tet-inducible APOL1 T-REx-HEK293 cells (G0, G1 or G2 clone not specified for Table 20)", "format": "cell-based", "conditions": "tet-induced, 24 hours with compound, ratio of dead to live cells, read-out: IP50 (i.e., IC50 for cell proliferation)", "in_short": "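HEK293 T-REx cells with tet-inducible APOL1 G0, G1 or G2 clone, 23,400/well, treated with tetracycline plus compound (top 10 μM, 10-point 3-fold, duplicate) for 24 h at 37° C. MultiTox-Fluor dead/live fluorescence ratio, normalized to no-tet (100% viability) and 50 ng/mL tet (0% viability) controls, then curve-fitted.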", "note": "pIC50: −log10 of the molar value."}
{"smiles": "C[C@H]1C[C@@]2(CCN1Cc1cn(CC3(C(N)=O)CC3)nn1)OCCc1ccc(Cl)cc12", "note": "[Compound 188]", "values": [{"measurement": "pIC50", "value": "≥ 7.30"}]}
{"smiles": "CN1C(=O)C2(CCN(Cc3cn(CCO)nn3)CC2)c2cc(Cl)ccc21", "note": "[Compound 43]", "values": [{"measurement": "pIC50", "value": "≤ 6.30"}]}
{"smiles": "COC(=O)c1ccc(CN2CCC3(CC2)OC(C(N)=O)c2ccc(Cl)cc23)cn1", "note": "(stereo not shown) [Compound 246]", "values": [{"measurement": "pIC50", "value": "≥ 7.30"}]}
{"smiles": "NC(=O)C1OC2(CCN(Cc3cocn3)CC2)c2cc(Cl)ccc21", "note": "(stereo not shown) [Compound 255]", "values": [{"measurement": "pIC50", "value": "≤ 6.30"}]}
{"smiles": "CN1C(=O)C2(CCN(Cc3cnn(CCS(C)(=O)=O)c3)CC2)c2cc(C(F)(F)F)ccc21", "note": "[Compound 83]", "values": [{"measurement": "pIC50", "value": "≤ 6.30"}]}
{"smiles": "C[C@H]1C[C@@]2(CCN1Cc1cn(CCCc3nc(=O)[nH][nH]3)nn1)OCCc1ccc(Cl)cc12", "note": "[Compound 160]", "values": [{"measurement": "pIC50", "value": "6.30 to 7.30"}]}
{"smiles": "C[C@H]1C[C@@]2(CCN1Cc1cn(Cc3ccnc(CO)c3)nn1)OCCc1ccc(Cl)cc12", "note": "[Compound 142, (4-((4-(((1R,2′S)-7-chloro-2′-methylspiro[isochromane-1,4′-piperidin]-1′-yl)methyl)-1H-1,2,3-triazol-1-yl)methyl)pyridin-2-yl)methanol]", "values": [{"measurement": "pIC50", "value": "6.30 to 7.30"}]}
{"smiles": "C[C@H]1C[C@@]2(CCN1Cc1cn(Cc3nccn(C)c3=O)nn1)OCCc1ccc(Cl)cc12", "note": "[Compound 176]", "values": [{"measurement": "pIC50", "value": "6.30 to 7.30"}]}
{"smiles": "CC1(n2cc(CN3CCC4(CC3)OC(C(N)=O)c3ccc(Cl)cc34)cn2)CCS(=O)(=O)C1", "note": "(stereo not shown) [Compound 241]", "values": [{"measurement": "pIC50", "value": "≤ 6.30"}]}
{"smiles": "CNC(=O)C1OC2(CCN(Cc3cnn(-c4ccccc4)c3)CC2)c2ccccc21", "note": "(stereo not shown) [Compound 190, N-methyl-1′-[(1-phenylpyrazol-4-yl)methyl]spiro[1H-isobenzofuran-3,4′-piperidine]-1-carboxamide]", "values": [{"measurement": "pIC50", "value": "≤ 6.30"}]}
{"smiles": "CCN1C(=O)C2(CCN(Cc3cnn(CCS(C)(=O)=O)c3)CC2)c2cc(Cl)ccc21", "note": "[Compound 48]", "values": [{"measurement": "pIC50", "value": "6.30 to 7.30"}]}
{"smiles": "Nc1ncc(CN2CCC3(CC2)C(=O)Nc2ccc(Cl)cc23)s1", "note": "[Compound 3]", "values": [{"measurement": "pIC50", "value": "6.30 to 7.30"}]}
{"smiles": "CN1C(=O)C2(CCN(Cc3cnn(C[C@H]4C[C@@H](NS(=O)(=O)C5CC5)C4)c3)CC2)c2cc(Cl)ccc21", "note": "[Compound 65]", "values": [{"measurement": "pIC50", "value": "≤ 6.30"}]}
{"smiles": "Cn1cc(CN2CCC3(CC2)OC(C(N)=O)c2ccc(Cl)cc23)ccc1=O", "note": "(stereo not shown) [Compound 253]", "values": [{"measurement": "pIC50", "value": "6.30 to 7.30"}]}
{"smiles": "C[C@H]1C[C@@]2(CCN1Cc1cnn(CCS(C)(=O)=O)c1)OCCc1ccc(Cl)cc12", "note": "[Compound 88, (1R,2′S)-7-chloro-2′-methyl-1′-[[1-(2-methylsulfonylethyl)pyrazol-4-yl]methyl]spiro[isochromane-1,4′-piperidine]]", "values": [{"measurement": "pIC50", "value": "≥ 7.30"}]}
{"smiles": "Cn1cnc(CN2CCC3(CC2)OC(C(N)=O)c2ccc(Cl)cc23)c1", "note": "(stereo not shown) [Compound 273]", "values": [{"measurement": "pIC50", "value": "≤ 6.30"}]}
{"smiles": "C[C@H]1C[C@@]2(CCN1Cc1cnn(-c3ccccn3)c1)OCCc1ccc(Cl)cc12", "note": "[Compound 117]", "values": [{"measurement": "pIC50", "value": "≥ 7.30"}]}
{"smiles": "C[C@H]1C[C@@]2(CCN1Cc1cccnc1)OCCc1ccc(Cl)cc12", "note": "[Compound 114]", "values": [{"measurement": "pIC50", "value": "≥ 7.30"}]}
{"smiles": "NC(=O)C1OC2(CCN(Cc3cnn4cccnc34)CC2)c2cc(Cl)ccc21", "note": "(stereo not shown) [Compound 228]", "values": [{"measurement": "pIC50", "value": "6.30 to 7.30"}]}
{"smiles": "N#Cc1ccc(CN2CCC3(CC2)OC(C(N)=O)c2ccc(Cl)cc23)cc1", "note": "(stereo not shown) [Compound 217]", "values": [{"measurement": "pIC50", "value": "6.30 to 7.30"}]}
{"smiles": "CN1C(=O)Cc2ccc(CN3CCC4(CC3)OC(C(N)=O)c3ccc(Cl)cc34)cc21", "note": "(stereo not shown) [Compound 230]", "values": [{"measurement": "pIC50", "value": "≥ 7.30"}]}
{"smiles": "C[C@H]1C[C@@]2(CCN1Cc1cnn(CC(C)(CO)CO)c1)OCCc1ccc(Cl)cc12", "note": "[Compound 115]", "values": [{"measurement": "pIC50", "value": "≥ 7.30"}]}
{"smiles": "CN1C(=O)C2(CCN(Cc3cnn(CC(O)C(F)(F)F)c3)CC2)c2cc(Cl)ccc21", "note": "(stereo not shown) [Compound 53]", "values": [{"measurement": "pIC50", "value": "6.30 to 7.30"}]}
{"smiles": "CNS(=O)(=O)CCn1cc(CN2CC[C@]3(C[C@@H]2C)OCCc2ccc(Cl)cc23)cn1", "note": "[Compound 126]", "values": [{"measurement": "pIC50", "value": "≥ 7.30"}]}
{"smiles": "NC(=O)C1OC2(CCN(Cc3cnn(CC(O)C4(O)CCOCC4)c3)CC2)c2cc(Cl)ccc21", "note": "(stereo not shown) [Compound 281]", "values": [{"measurement": "pIC50", "value": "≥ 7.30"}]}
{"smiles": "CS(=O)(=O)CCn1cc(CN2CCC3(CC2)OCC(O)c2ccc(Cl)cc23)cn1", "note": "(stereo not shown) [Compound 130]", "values": [{"measurement": "pIC50", "value": "6.30 to 7.30"}]}
{"smiles": "COCCN1C(=O)C2(CCN(Cc3cnn(CCS(C)(=O)=O)c3)CC2)c2cc(Cl)ccc21", "note": "[Compound 51]", "values": [{"measurement": "pIC50", "value": "≤ 6.30"}]}
{"smiles": "CS(=O)(=O)CCn1cc(CN2CCC3(CC2)C(=O)Nc2ccc(F)cc23)cn1", "note": "[Compound 21]", "values": [{"measurement": "pIC50", "value": "≤ 6.30"}]}
